Measured values: paper PMC12302339 (Journal of Advanced Research, 2024)
Converted amounts (≈) assume the structure as drawn.

Key:
[1] = test system: p42; format: binding, Xanthomonas oryzae pv. oryzae
[2] = in vivo; conditions: Brachydanio rerio (zebrafish)
[3] = test system: A549, human non-small cell lung cancer cells; test: cells; format: cell-based
[4] = test system: rice; conditions: in vivo

## C#CCNc1ncnc2ccccc12 [NP, N-(prop-2-yn-1-yl)quinazolin-4-amine]
[1]
  proteome labeling in situ or in vitro: failed to label any proteins

## C=CC(=O)Nc1ncnc2ccc(Br)cc12 [compound 7a, N-(6-bromoquinazolin-4-yl)acrylamide]
[2]
  LC50 at 48 h: 0.53 µg/mL (≈ 1.91 µM)
  LC50 at 72 h: 0.48 µg/mL (≈ 1.73 µM)
  LC50 at 96 h: 0.48 µg/mL (≈ 1.73 µM)
[3]
  IC50: 23.1 µM
[1]
  competition of probe P1 labeling of p42: dose-dependently competed
[4]
  phytotoxicity on rice leaves: no signs of damage

## C#CCN(C(=O)C=C)c1ncnc2ccc(Br)cc12 [probe P1, N-(6-bromoquinazolin-4-yl)-N-(prop-2-yn-1-yl)acrylamide]
[1]
  proteome labeling in situ or in vitro: prominent labeling
  time after which p42 was visualized: 5 min
  time to complete labeling of p42: 2 h

## O=c1[nH]cc(F)c(=O)[nH]1 [5-FU, 5-fluorouracil, reference compound]
[3]
  IC50: 1.42 µM
